In test [1] the target is T1, P. aeruginosa MurF (Pseudomonas aeruginosa, UniProt Q9EY48).
T1 construct: made in house
As to the kind of experiment: MurF kinetics with respect to D-Ala-D-Ala, spectrophotometric (Lanzetta reagent) ATPase assay. The format is biochemical. The protocol: (§1) The ATPase activity of P. aeruginosa MurF was quantified by a colorimetric assay that measures the release of nanomoles of inorganic phosphate using the Lanzetta reagent. The reaction mixture (100 μl), held at room temperature, contained 40 nM of purified MurF from a fresh aliquot, 1 mM ATP, 100 μM UDP-MurNAc-Ala-Glu-meso-A2pm and 5 mM D-Ala-D-Ala in buffer C (100 mM Tris-HCl pH 8.6, 40 mM KCl, 500 mM NaCl, 1 mg/ml bovine serum albumin and 10 mM MgCl2). Reaction time was 15 min before adding 800 μl of the Lanzetta reagent. After an additional 5 min for colour development, 100 μl of 34% (w/v) sodium citrate was added to stop the reaction. The optical density at 660 nm was immediately measured with a Cary spectrophotometer (Varian, Mississauga, Ontario, Canada). The amount of inorganic phosphate released by MurF was determined by comparison to the linear portion of a phosphate standard curve with a minimum R^2 value of 0.99. The phosphate content of each component in the reaction was subtracted from the total phosphate measured, negative controls were done without enzyme or substrate, and assays were done in triplicate. Different concentrations of each substrate and NaCl were tested to determine optimal conditions for the study of the activity of MurFp1.
The maximal specific activity, the catalytic constant (kcat), the Michaelis-Menten constant (Km) and the enzyme efficiency (kcat/Km) were determined for MurF with respect to D-Ala-D-Ala. Kinetic parameters were determined by nonlinear regression analysis with a square matrix of enzyme velocities following the Michaelis-Menten equations using the Enzyme Kinetics Module version 1 of SigmaPlot version 8.

For test [2], the system named is MurF. The settings on record: 12-mer phage library, elution with glycine-HCl, 1 mM ATP or 1 mM D-Ala-D-Ala; ten phages sequenced per elution condition; in words.
Procedure: Phage display screening was performed with the PH.D.-12 phage library (New England Biolabs, Mississauga, Ontario, Canada). […] Phages encoding selected peptides were eluted at the end of the third round using 100 μl of 0.2 M glycine-HCl (pH 2.2) [17], and 100 μl of 1 mM ATP or 1 mM D-Ala-D-Ala for 30 min. The DNA of ten phages was prepared and sequenced with a -96 gIII primer (New England Biolabs) for each elution condition [23].
Test [3] deals with T1, P. aeruginosa MurF. As to the kind of experiment: MurF inhibition by MurFp1, spectrophotometric (Lanzetta reagent) ATPase assay. The format is biochemical. The procedure: as §1
MurFp1 was synthesized and purified as previously described. Peptide purity (> 95%) was analyzed by HPLC and molecular mass (1424.68 daltons) was confirmed by MALDI-TOF mass spectroscopy. […]
Inhibition of MurF enzymatic activity by MurFp1 was measured by the spectrophotometric assay described above. […] The effect of non-specific peptides was analysed on MurF enzymatic activity, with and without UDP-MurNAc-Ala-Glu-A2pm in the pre-incubation step. […]
Kinetic data were fitted to the appropriate model equations using the Sigmaplot Enzyme Kinetics Module. Steady-state inhibition kinetic parameters were determined by nonlinear regression analysis using the least squares method as a reference to ensure accurate dataset fitting and to generate error estimates for each individual observation. […]

Ends that are not written are not given here.

For orientation: Km means the substrate concentration at which the rate is half of its maximum. As usually defined, the kcat/Km is the second-order rate constant that governs catalysis at low substrate concentration. What is called inhibition is the percentage by which the read-out fell short of the control. High values mean strong suppression, low ones little suppression. A word on the IC50: it is the concentration that gives 50% inhibition. Lower therefore signals greater potency.

T1 sequence (Q9EY48 entry or part of it): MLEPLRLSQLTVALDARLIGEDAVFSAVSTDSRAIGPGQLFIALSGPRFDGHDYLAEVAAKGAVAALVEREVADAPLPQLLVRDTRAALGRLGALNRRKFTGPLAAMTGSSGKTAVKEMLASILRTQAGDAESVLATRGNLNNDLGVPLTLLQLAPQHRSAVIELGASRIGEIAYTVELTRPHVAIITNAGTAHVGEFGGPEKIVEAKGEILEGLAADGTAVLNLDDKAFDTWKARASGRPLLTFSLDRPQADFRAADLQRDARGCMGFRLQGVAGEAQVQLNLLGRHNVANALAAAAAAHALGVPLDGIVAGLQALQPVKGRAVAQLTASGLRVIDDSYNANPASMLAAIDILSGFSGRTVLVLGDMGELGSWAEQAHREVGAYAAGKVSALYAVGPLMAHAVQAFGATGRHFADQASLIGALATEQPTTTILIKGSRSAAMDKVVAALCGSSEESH

In the case of D-Alanyl-D-Alanine [D-Ala-D-Ala], in test [1] (MurF, with respect to D-Ala-D-Ala, pH 8.6, room temperature), the Km was determined as 115 ± 10 µM. The “ligations of D-Ala-D-Ala per MurF active site (kcat)” value in test [1] (ligation to UDP-MurNAc-Ala-Glu-meso-A2pm, from kcat) is “about 100 per min”. For the same substance, in test [1] (with respect to D-Ala-D-Ala, pH 8.6, room temperature), the kcat/Km came to 14200 ± 2500 M⁻¹ s⁻¹.

Consider VSANRHLGGNLP, for which the “recovery in third round of bio-panning” value in test [2] was “recovered once by both the ATP and D-Ala-D-Ala elutions”.

TMGFTAPRFPHY [MurFp1]: in test [3] (2 mM MurFp1, 30-minute pre-incubation of MurF with MurFp1, no substrate in pre-incubation), the inhibition at 2000 µM came to 50%. For the same substance, in test [3] (30 min pre-incubation with MurF, MurFp1 and UDP-MurNAc-Ala-Glu-meso-A2pm, 40 nM MurF, pH 8.6, room temperature, 15 min reaction, OD 660 nm, assays in triplicate), the midpoint of inhibition, the IC50, lay at 250 ± 10 µM. Besides, the “effect on Km for D-Ala-D-Ala” value in test [3] (each MurFp1 concentration used, 30 min pre-incubation with UDP-MurNAc-Ala-Glu-A2pm, in words) is “remained almost the same”.

For the origin of these results see PMC2626591, “Phage display-derived inhibitor of the essential cell wall biosynthesis enzyme MurF” (BMC Biochemistry, 2008).
